A short description of the data set: Urine and fecal excretion of total radioactivity (mass balance). It is filed as in vivo, human. The following applies: 25 mg [14C] oral solution; for total radioactivity recovered (urinary + fecal): 96‐ to 120‐hour collection (day 5) onward. The method, then:
On day 1 of treatment period 2, after an overnight fast of at least 8 hours, each participant received 25 mg [^14C]‐GSK1278863 (≈2.31 MBq; 62.5 μCi) as an oral solution; participants continued to fast for 4 hours after dosing.[15] Blood, urine, and fecal samples were collected for a minimum of 144 hours (up to day 7) after dosing, depending on the amount of radioactivity excreted by each participant in excreta collected daily. Liquid scintillation counting (LSC) was performed on these excreta collections on an ongoing basis to assess recovery of the radioactivity dosed. Participants were discharged if ≥90% and <1% of the dose was excreted on both days 6 and 7.
Urine samples for measurement of total radioactivity excreted in urine were collected before dosing in period 1, then over the time periods 0 to 24, 24 to 48, 48 to 72, 72 to 96, 96 to 120, and 120 to 144 hours in period 2. An aliquot of each 24‐hour urine collection was shipped at ambient temperature to Covance (Harrogate, North Yorkshire, UK) for total radioactivity measurement by LSC. […] Total fecal samples were frozen at −70°C, then shipped on cold gel packs to Covance for total radioactivity measurement by LSC (following homogenization). Aliquots of both urine and fecal homogenates were also sent to GlaxoSmithKline (GSK) for characterization and quantification of metabolites (data not reported). • The following parameters were determined from the urine and fecal radiolabeled drug‐related material (total radioactivity) data: • Absolute amount excreted and percentage excreted in urine (Ae [urine] and Fe% [urine]) within each collection period and cumulative urinary recovery and fraction excreted over the total collection period • Absolute amount excreted and percentage excreted in feces (Ae [fecal] and Fe% [fecal]) with each collection period and cumulative fecal recovery and fraction excreted over the total collection period and cumulatively over the collection period
Total excretion (sum of urine and fecal excretion), Ae [total], and Fe% [total] were calculated by collection interval for each participant. […]

The structures appear in SMILES notation.

In the case of `O=C(O)CNC(=O)C1C(=O)N(C2CCCCC2)C(=O)N(C2CCCCC2)C1=O` [Daprodustat], the “unchanged daprodustat excreted in urine” value is given as “≈ 0.5 % of the administered radioactivity” and the “total radioactivity recovered (urinary + fecal)” value is “≈ 95 % of the administered radioact”. Besides, the “total radioactivity recovered (urinary + fecal)” value (listed as [^14C]‐GSK1278863) is recorded as “≈ 95 % of the administered radioactivity”.

Source of the values: PMC9298194, “Clinical Pharmacokinetics of Daprodustat: Results of an Absorption, Distribution, and Excretion Study With Intravenous Microtracer and Concomitant Oral Doses for Bioavailability Determination” (Clinical Pharmacology in Drug Development, 2021).
